Among the data in ChEMBL document CHEMBL1137199, “Estrogen receptor ligands. Part 8: Dihydrobenzoxathiin SERAMs with heteroatom-substituted side chains” (Bioorg Med Chem Lett, 2004) are IC50 values, retold here.

The target of one test is T1, Estrogen receptor (Homo sapiens, UniProt P03372).
T1 sequence (P03372 whole entry): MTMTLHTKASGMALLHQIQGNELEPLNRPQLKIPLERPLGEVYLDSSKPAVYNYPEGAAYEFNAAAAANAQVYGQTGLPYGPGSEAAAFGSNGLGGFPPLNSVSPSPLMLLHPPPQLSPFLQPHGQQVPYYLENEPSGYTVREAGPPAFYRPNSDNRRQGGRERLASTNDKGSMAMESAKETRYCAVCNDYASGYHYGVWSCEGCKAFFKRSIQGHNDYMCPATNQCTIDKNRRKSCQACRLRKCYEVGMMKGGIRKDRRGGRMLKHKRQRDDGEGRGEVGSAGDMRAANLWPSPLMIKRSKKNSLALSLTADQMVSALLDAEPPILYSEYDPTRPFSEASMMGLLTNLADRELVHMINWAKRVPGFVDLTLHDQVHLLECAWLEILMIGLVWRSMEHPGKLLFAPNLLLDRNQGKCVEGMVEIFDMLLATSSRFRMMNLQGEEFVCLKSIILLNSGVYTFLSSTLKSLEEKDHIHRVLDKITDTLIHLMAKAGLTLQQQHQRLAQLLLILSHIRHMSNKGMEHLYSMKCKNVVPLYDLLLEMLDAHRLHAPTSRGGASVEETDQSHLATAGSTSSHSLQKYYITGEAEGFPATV

For a further test, the target named is Estrogen receptor beta (Homo sapiens, UniProt Q92731).
In another test the test system is MCF7. Kind of test: cells. Particulars: Homo sapiens.

Structures are written as SMILES. pIC50: −log10 of the molar value.

Usually pIC50 stands for the negative decadic logarithm of the IC50, by convention in mol/L.

Estrogen receptor beta, sequence (Q92731 whole entry): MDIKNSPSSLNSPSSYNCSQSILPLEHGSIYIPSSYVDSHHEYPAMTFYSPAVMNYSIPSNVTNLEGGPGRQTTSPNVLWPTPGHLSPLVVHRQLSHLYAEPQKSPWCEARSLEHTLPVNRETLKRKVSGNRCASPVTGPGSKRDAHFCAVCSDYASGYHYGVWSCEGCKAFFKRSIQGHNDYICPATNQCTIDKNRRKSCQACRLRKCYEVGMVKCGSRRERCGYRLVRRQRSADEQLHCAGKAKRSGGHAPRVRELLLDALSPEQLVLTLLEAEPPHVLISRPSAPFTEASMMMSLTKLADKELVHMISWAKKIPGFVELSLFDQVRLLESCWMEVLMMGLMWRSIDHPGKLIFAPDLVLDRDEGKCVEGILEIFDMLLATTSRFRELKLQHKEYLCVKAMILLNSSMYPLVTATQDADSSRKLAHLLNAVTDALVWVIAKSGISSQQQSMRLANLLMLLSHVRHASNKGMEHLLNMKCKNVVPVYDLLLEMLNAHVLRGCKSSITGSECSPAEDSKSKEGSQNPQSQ

Take `Oc1ccc([C@H]2Sc3cc(O)ccc3O[C@H]2c2ccc(OCCN3CCC(F)CC3)cc2)cc1`: the pIC50 against Estrogen receptor was 8.60; on Estrogen receptor beta it was 6.94.

Take `Oc1ccc([C@H]2Sc3cc(O)ccc3O[C@H]2c2ccc(OCCN3CC[C@@H](F)C3)cc2)cc1`: the results for the pIC50 on Estrogen receptor, at Estrogen receptor beta and in the test on MCF7 were 9.30, 7.23 and 8.42, respectively.

On to `Oc1ccc([C@H]2Sc3cc(O)ccc3O[C@H]2c2ccc(OCCN3CCSCC3)cc2)cc1`, for which the pIC50 against Estrogen receptor was 8.82; at Estrogen receptor beta it was 7.14; in the test with MCF7 it was 7.81.

Regarding `Oc1ccc([C@H]2Sc3cc(O)ccc3O[C@H]2c2ccc(OCCN3CCC(F)(F)CC3)cc2)cc1`, the pIC50 against Estrogen receptor is 7.80; against Estrogen receptor beta, 6.56; with MCF7, 7.38.

As for `OCC1CCN(CCOc2ccc([C@@H]3Oc4ccc(O)cc4S[C@@H]3c3ccc(O)cc3)cc2)CC1`, the figures for the pIC50 against Estrogen receptor, on Estrogen receptor beta and in the test on MCF7 were 8.66, 6.36 and 7.95, respectively.

`Oc1ccc([C@H]2Sc3cc(O)ccc3O[C@H]2c2ccc(OCCN3CC[C@@H](O)C3)cc2)cc1`: the negative-log IC50 (pIC50) against Estrogen receptor is 8.77; against Estrogen receptor beta, 7.09; with MCF7 it was 9.22.

As to `OC[C@@H]1CCCN1CCOc1ccc([C@@H]2Oc3ccc(O)cc3S[C@@H]2c2ccc(O)cc2)cc1`, the pIC50 at Estrogen receptor is 8.41; against Estrogen receptor beta, 7.09; in the test on MCF7 it was 8.72.

For the compound `Oc1ccc([C@H]2Sc3cc(O)ccc3O[C@H]2c2ccc(OCCN3CCC(O)CC3)cc2)cc1`, the pIC50 was 8.74 at Estrogen receptor, 6.48 against Estrogen receptor beta and 8.12 in the test with MCF7.

Regarding `O=S1(=O)CCN(CCOc2ccc([C@@H]3Oc4ccc(O)cc4S[C@@H]3c3ccc(O)cc3)cc2)CC1`, the pIC50 is 8.70 on Estrogen receptor, 6.61 on Estrogen receptor beta and 7.58 in the test with MCF7.

As to `OCCC1CCN(CCOc2ccc([C@@H]3Oc4ccc(O)cc4S[C@@H]3c3ccc(O)cc3)cc2)CC1`, the pIC50 against Estrogen receptor was 8.14; against Estrogen receptor beta it was 5.95; in the test on MCF7 it was 7.37.

On to `Oc1ccc([C@H]2Sc3cc(O)ccc3O[C@H]2c2ccc(OCCN3CCC4(CC3)OCCO4)cc2)cc1`, for which the pIC50 against Estrogen receptor was 8.70; on Estrogen receptor beta, 6.57; in the test with MCF7, 7.37.

Take `NC(=O)C1CCN(CCOc2ccc([C@@H]3Oc4ccc(O)cc4S[C@@H]3c3ccc(O)cc3)cc2)CC1`: the pIC50 against Estrogen receptor was 8.66; against Estrogen receptor beta it was 6.44; in the test on MCF7, 7.68.

With `OC[C@H]1CCCN1CCOc1ccc([C@@H]2Oc3ccc(O)cc3S[C@@H]2c2ccc(O)cc2)cc1`, the negative logarithm of the IC50 (pIC50) is 8.70 at Estrogen receptor, 6.87 on Estrogen receptor beta and 8.49 with MCF7.
